Our source for the relative viability values is the supplement of paper PMC10307832.

Common to all, as to test: relative viability (nuclei count vs DMSO), 5 days (fraction); higher = more cells survive
Compound in experiment [1]: C=CCn1c(=O)c2cnc(Nc3ccc(N4CCN(C)CC4)cc3)nc2n1-c1cccc(C(C)(C)O)n1 [Adavosertib] + N=C(N)NC(=N)NCCc1ccccc1 [Phenformin] (partner 250 µM)
A digest of the protocol:
(§1)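 For relative viability, nuclei counts in treated wells were divided by those in vehicle wells. Lung cancer cell lines had been pin-tool dosed in 1536-well plates the day after seeding and cultured for 5 days, then fixed and stained in one step (final 0.05% Triton X-100, 1% formaldehyde, 1 ug/ml Hoechst) and imaged at 4×. Doses were one drug alone or a fixed anchor-drug dose plus five library-drug doses (not always all listed) in √10 steps, and values are duplicate-plate medians.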

Compound in experiment [2]: COc1nc(N)nc2c1ncn2[C@@H]1O[C@H](CO)[C@@H](O)[C@@H]1O [Nelarabine] + CC(C)C[C@H](NC(=O)[C@H](Cc1ccccc1)NC(=O)c1cnccn1)B(O)O [Bortezomib] (partner 0.002 µM)
A digest of the protocol: as §1

Compound in experiment [3]: C=CCn1c(=O)c2cnc(Nc3ccc(N4CCN(C)CC4)cc3)nc2n1-c1cccc(C(C)(C)O)n1 [Adavosertib] + CC(=O)Nc1cccc(-n2c(=O)n(C3CC3)c(=O)c3c(Nc4ccc(I)cc4F)n(C)c(=O)c(C)c32)c1 [Trametinib] (partner 0.02 µM)
A digest of the protocol: as §1

Compound in experiment [4]: COc1nc(N)nc2c1ncn2[C@@H]1O[C@H](CO)[C@@H](O)[C@@H]1O [Nelarabine] + O=C(CCCCCCC(=O)Nc1ccccc1)NO [Vorinostat] (partner 1 µM)
A digest of the protocol: as §1

As to LCLC-97TM1, the relative viability in experiment [1] (first compound 0.01 µM) was 0.428; in experiment [1] (first compound 0.03162 µM), 0.397; in experiment [1] (first compound 0.1 µM), 0.488; in experiment [1] (first compound 0.3162 µM) it was 0.417; in experiment [2] (first compound 0.01 µM) it was 1.05; in experiment [2] (first compound 0.1 µM), 0.716. For the same cell line, the relative viability in experiment [2] (first compound 0.3162 µM) is 0.634; in experiment [2] (first compound 1 µM), 0.205; in experiment [3] (first compound 0.01 µM), 0.223; in experiment [3] (first compound 0.03162 µM), 0.171; in experiment [3] (first compound 0.1 µM), 0.227; in experiment [3] (first compound 0.3162 µM), 0.21. Besides, the relative viability in experiment [4] (first compound 0.1 µM) was determined as 0.464; in experiment [4] (first compound 0.3162 µM), 0.819; in experiment [4] (first compound 1 µM) it was 0.713.
Consider HOP-62, for which the relative viability in experiment [1] (first compound 0.01 µM) is 0.698; in experiment [1] (first compound 0.03162 µM) it was 0.621; in experiment [1] (first compound 0.1 µM) it was 0.802; in experiment [1] (first compound 0.3162 µM) it was 0.769; in experiment [2] (first compound 0.01 µM) it was 1.46; in experiment [2] (first compound 0.03162 µM), 0.392. The relative viability was determined as 1.11 in experiment [2] (first compound 0.1 µM); 1.18 in experiment [2] (first compound 0.3162 µM); 1.02 in experiment [2] (first compound 1 µM); 0.357 in experiment [3] (first compound 0.01 µM); 0.406 in experiment [3] (first compound 0.03162 µM); 0.356 in experiment [3] (first compound 0.1 µM). Further, the relative viability was determined as 0.384 in experiment [3] (first compound 0.3162 µM); 0.783 in experiment [4] (first compound 0.01 µM); 0.618 in experiment [4] (first compound 0.03162 µM); 0.669 in experiment [4] (first compound 0.1 µM); 0.708 in experiment [4] (first compound 0.3162 µM); 0.638 in experiment [4] (first compound 1 µM).
Turning to NCI-H1703, the relative viability in experiment [2] (first compound 0.01 µM) worked out at 0.364; in experiment [2] (first compound 0.03162 µM), 0.162; in experiment [2] (first compound 0.1 µM) it was 0.405; in experiment [2] (first compound 0.3162 µM), 0.303; in experiment [2] (first compound 1 µM) it was 0.448.
As to NCI-H596, the relative viability came out at 0.662 in experiment [1] (first compound 0.01 µM); 0.909 in experiment [1] (first compound 0.03162 µM); 0.754 in experiment [1] (first compound 0.1 µM); 1 in experiment [1] (first compound 0.3162 µM); 0.906 in experiment [2] (first compound 0.01 µM); 0.651 in experiment [2] (first compound 0.03162 µM). The relative viability came out at 1.28 in experiment [2] (first compound 0.1 µM); 0.96 in experiment [2] (first compound 0.3162 µM); 0.982 in experiment [2] (first compound 1 µM); 0.81 in experiment [3] (first compound 0.01 µM); 0.79 in experiment [3] (first compound 0.03162 µM); 0.678 in experiment [3] (first compound 0.1 µM). Further, the relative viability in experiment [3] (first compound 0.3162 µM) was 0.796; in experiment [4] (first compound 0.01 µM), 0.546; in experiment [4] (first compound 0.03162 µM) it was 0.608; in experiment [4] (first compound 0.1 µM), 0.613; in experiment [4] (first compound 0.3162 µM) it was 0.671; in experiment [4] (first compound 1 µM), 0.661.
For NCI-H2126, the relative viability came out at 0.525 in experiment [1] (first compound 0.01 µM); 0.538 in experiment [1] (first compound 0.03162 µM); 0.531 in experiment [1] (first compound 0.1 µM); 0.568 in experiment [1] (first compound 0.3162 µM); 1.18 in experiment [2] (first compound 0.01 µM); 1.14 in experiment [2] (first compound 0.03162 µM). For the same cell line, the relative viability came out at 1.11 in experiment [2] (first compound 0.1 µM); 1.12 in experiment [2] (first compound 0.3162 µM); 1.01 in experiment [2] (first compound 1 µM); 0.571 in experiment [3] (first compound 0.01 µM); 0.528 in experiment [3] (first compound 0.03162 µM); 0.619 in experiment [3] (first compound 0.1 µM). The relative viability turned out to be 0.619 in experiment [3] (first compound 0.3162 µM); 0.945 in experiment [4] (first compound 0.01 µM); 0.803 in experiment [4] (first compound 0.03162 µM); 0.689 in experiment [4] (first compound 0.1 µM); 0.691 in experiment [4] (first compound 0.3162 µM); 0.816 in experiment [4] (first compound 1 µM).
NCI-H2087: the relative viability in experiment [1] (first compound 0.01 µM) amounted to 0.456; in experiment [1] (first compound 0.03162 µM), 0.442; in experiment [1] (first compound 0.1 µM) it was 0.525; in experiment [1] (first compound 0.3162 µM), 0.461; in experiment [2] (first compound 0.01 µM), 1.08; in experiment [2] (first compound 0.03162 µM) it was 0.821. Also, the relative viability in experiment [2] (first compound 0.1 µM) is 1.03; in experiment [2] (first compound 0.3162 µM), 1.03; in experiment [2] (first compound 1 µM), 0.793; in experiment [3] (first compound 0.01 µM) it was 0.217; in experiment [3] (first compound 0.03162 µM) it was 0.204; in experiment [3] (first compound 0.1 µM), 0.207. The relative viability in experiment [3] (first compound 0.3162 µM) turned out to be 0.2; in experiment [4] (first compound 0.01 µM), 0.674; in experiment [4] (first compound 0.03162 µM), 0.551; in experiment [4] (first compound 0.1 µM) it was 1.07; in experiment [4] (first compound 0.3162 µM) it was 0.874; in experiment [4] (first compound 1 µM), 0.898.
As for NCI-H1355, the relative viability amounted to 0.474 in experiment [1] (first compound 0.01 µM); 0.455 in experiment [1] (first compound 0.03162 µM); 0.426 in experiment [1] (first compound 0.1 µM); 0.403 in experiment [1] (first compound 0.3162 µM); 1.39 in experiment [2] (first compound 0.01 µM); 1.05 in experiment [2] (first compound 0.03162 µM). Moreover, the relative viability came to 1.25 in experiment [2] (first compound 0.1 µM); 1.32 in experiment [2] (first compound 0.3162 µM); 1.37 in experiment [2] (first compound 1 µM); 0.442 in experiment [3] (first compound 0.01 µM); 0.373 in experiment [3] (first compound 0.03162 µM); 0.445 in experiment [3] (first compound 0.1 µM). In addition, the relative viability amounted to 0.457 in experiment [3] (first compound 0.3162 µM); 0.665 in experiment [4] (first compound 0.01 µM); 0.673 in experiment [4] (first compound 0.03162 µM); 0.544 in experiment [4] (first compound 0.1 µM); 0.679 in experiment [4] (first compound 0.3162 µM); 0.705 in experiment [4] (first compound 1 µM).
EBC-1: the relative viability turned out to be 0.559 in experiment [2] (first compound 0.01 µM); 0.525 in experiment [2] (first compound 0.03162 µM); 0.548 in experiment [2] (first compound 0.1 µM); 0.55 in experiment [2] (first compound 0.3162 µM); 0.549 in experiment [2] (first compound 1 µM).
Take ABC-1: the relative viability in experiment [1] (first compound 0.01 µM) is 0.228; in experiment [1] (first compound 0.03162 µM), 0.237; in experiment [1] (first compound 0.1 µM) it was 0.208; in experiment [1] (first compound 0.3162 µM) it was 0.222; in experiment [2] (first compound 0.01 µM), 0.28; in experiment [2] (first compound 0.03162 µM), 0.319. For the same cell line, the relative viability is 0.251 in experiment [2] (first compound 0.1 µM); 0.245 in experiment [2] (first compound 0.3162 µM); 0.297 in experiment [2] (first compound 1 µM); 1.24 in experiment [4] (first compound 0.01 µM); 1.51 in experiment [4] (first compound 0.03162 µM); 1.22 in experiment [4] (first compound 0.1 µM). Further, the relative viability in experiment [4] (first compound 0.3162 µM) was found to be 1.07; in experiment [4] (first compound 1 µM), 0.929.
